Source: ChEMBL document CHEMBL3044552, “Synthesis and biological evaluation of 1-(3-chloro-2-oxo-4-phenylazetidin-1-yl)-3-(2-oxo-2-(10H-phenothiazin-10-yl)ethyl)urea derivatives” (Med Chem Res, 2013)
≈ marks a conversion by molar mass, not a printed value. Calls of active or inactive are those of the source. The calls are words filed in the database; no cut-off is given here.

Columns and labels:
[1] = system: Mycobacterium tuberculosis; experiment: Growth inhibition of Mycobacterium tuberculosis H37Rv at 10 ug/ml after 7 days by resazurin microplate assay; format: functional, organism-based
[2] = system: Staphylococcus epidermidis; experiment: Antibacterial activity against Staphylococcus albus after 24 hr by disk diffusion method; format: functional
[3] = system: Monascus purpureus; experiment: Antifungal activity against Monascus purpureus after 18 hr by serial dilution method; format: functional
[4] = system: HeLa; experiment: Growth inhibition of Homo sapiens (human) HeLa cells at 25 uM after 48 hr by MTT assay; format: functional; details: read-out: GI
[5] = system: Micrococcus luteus; experiment: Antibacterial activity against Micrococcus luteus after 18 hr by serial dilution method; format: functional
[6] = system: Mycobacterium tuberculosis; experiment: Growth inhibition of Mycobacterium tuberculosis H37Rv at 1 ug/ml after 7 days by resazurin microplate assay; format: functional, organism-based
[7] = system: Trichophyton rubrum; experiment: Antifungal activity against Trichophyton rubrum after 18 hr by serial dilution method; format: functional
[8] = system: Mycobacterium tuberculosis; experiment: Growth inhibition of Mycobacterium tuberculosis H37Rv at 100 ug/ml after 7 days by resazurin microplate assay; format: functional, organism-based
[9] = system: Vibrio cholerae; experiment: Antibacterial activity against Vibrio cholerae after 18 hr by serial dilution method; format: functional
[10] = system: Escherichia coli; experiment: Antibacterial activity against Escherichia coli after 24 hr by disc diffusion method; format: functional
[11] = system: HeLa; experiment: Growth inhibition of Homo sapiens (human) HeLa cells at 100 uM after 48 hr by MTT assay; format: functional; details: read-out: GI
[12] = system: HeLa; experiment: Growth inhibition of Homo sapiens (human) HeLa cells at 6.25 uM after 48 hr by MTT assay; format: functional; details: read-out: GI
[13] = system: Staphylococcus aureus; experiment: Antibacterial activity against Staphylococcus aureus after 24 hr by disk diffusion method; format: functional
[14] = system: Pseudomonas aeruginosa; experiment: Antibacterial activity against Pseudomonas aeruginosa after 18 hr by serial dilution method; format: functional
[15] = system: Micrococcus luteus; experiment: Antibacterial activity against Micrococcus luteus after 24 hr by disk diffusion method; format: functional
[16] = system: Escherichia coli; experiment: Antibacterial activity against Escherichia coli after 18 hr by serial dilution method; format: functional
[17] = system: Staphylococcus epidermidis; experiment: Antibacterial activity against Staphylococcus albus after 18 hr by serial dilution method; format: functional
[18] = system: Vibrio cholerae; experiment: Antibacterial activity against Vibrio cholerae after 24 hr by disk diffusion method; format: functional
[19] = system: Candida albicans; experiment: Antifungal activity against Candida albicans after 24 hr by disk diffusion method; format: functional
[20] = system: Bacillus subtilis; experiment: Antibacterial activity against Bacillus subtilis after 18 hr by serial dilution method; format: functional
[21] = system: Staphylococcus aureus; experiment: Antibacterial activity against Staphylococcus aureus after 18 hr by serial dilution method; format: functional
[22] = system: Bacillus subtilis; experiment: Antibacterial activity against Bacillus subtilis after 24 hr by disk diffusion method; format: functional
[23] = system: Salmonella paratyphi; experiment: Antibacterial activity against Salmonella enterica subsp. enterica serovar Paratyphi A after 18 hr by serial dilution method; format: functional
[24] = system: Salmonella paratyphi; experiment: Antibacterial activity against Salmonella enterica subsp. enterica serovar Paratyphi A after 24 hr by disk diffusion method; format: functional
[25] = system: Trichophyton rubrum; experiment: Antifungal activity against Trichophyton rubrum after 24 hr by disk diffusion method; format: functional
[26] = system: Candida albicans; experiment: Antifungal activity against Candida albicans after 18 hr by serial dilution method; format: functional
[27] = system: Aspergillus niger; experiment: Antifungal activity against Aspergillus niger after 24 hr by disc diffusion method; format: functional
[28] = system: HeLa; experiment: Cytotoxicity against Homo sapiens (human) HeLa cells after 48 hr by MTT assay; format: functional, cell-based
[29] = system: HeLa; experiment: Growth inhibition of Homo sapiens (human) HeLa cells at 12.5 uM after 48 hr by MTT assay; format: functional; details: read-out: GI
[30] = system: Monascus purpureus; experiment: Antifungal activity against Monascus purpureus after 24 hr by disk diffusion method; format: functional
[31] = system: Aspergillus niger; experiment: Antifungal activity against Aspergillus niger after 18 hr by serial dilution method; format: functional
[32] = system: HeLa; experiment: Growth inhibition of Homo sapiens (human) HeLa cells at 50 uM after 48 hr by MTT assay; format: functional; details: read-out: GI
[33] = system: Pseudomonas aeruginosa; experiment: Antibacterial activity against Pseudomonas aeruginosa after 24 hr by disc diffusion method; format: functional
[34] = Antioxidant activity assessed as reduction of ferric ion after 30 min by spectrophotometric analysis; format: functional
[35] = system: Radical scavenging activity; experiment: Antioxidant activity assessed as DPPH radical scavenging activity after 30 min by spectrophotometric analysis; format: functional

Compound	diameter of the inhibition zone (DIZ) [2] [mm]	MIC [3] [µg/mL]	inhibition of growth at 25 µM [4] [%]	MIC [5] [µg/mL]	MIC [7] [µg/mL]	MIC [9] [µg/mL]	diameter of the inhibition zone (DIZ) [10] [mm]	inhibition of growth at 100 µM [11] [%]	inhibition of growth at 6.25 µM [12] [%]	diameter of the inhibition zone (DIZ) [13] [mm]	MIC [14] [µg/mL]	diameter of the inhibition zone (DIZ) [15] [mm]	MIC [16] [µg/mL]	MIC [17] [µg/mL]	diameter of the inhibition zone (DIZ) [18] [mm]	diameter of the inhibition zone (DIZ) [19] [mm]	MIC [20] [µg/mL]	MIC [21] [µg/mL]	diameter of the inhibition zone (DIZ) [22] [mm]	MIC [23] [µg/mL]	also measured
O=C(NCC(=O)N1c2ccccc2Sc2ccccc21)NN1C(=O)C(Cl)C1c1ccc([N+](=O)[O-])cc1 (centres undefined)	4	62.5 (≈ 119 µM)	56.5	250 (≈ 477 µM)	250 (≈ 477 µM)	250 (≈ 477 µM)	15	89.5	23.6	4	500 (≈ 954 µM)	3	62.5 (≈ 119 µM)	250 (≈ 477 µM)	5	14	250 (≈ 477 µM)	250 (≈ 477 µM)	5	125 (≈ 239 µM)	growth inhibition (GI) [1]: inactive; growth inhibition (GI) [6]: inactive; growth inhibition (GI) [8]: Active; diameter of the inhibition zone (DIZ) [24]: 7 mm; diameter of the inhibition zone (DIZ) [25]: 5 mm; MIC [26]: 62.5 µg/mL (≈ 119 µM); diameter of the inhibition zone (DIZ) [27]: 9 mm; IC50 [28]: 18.3 µM; inhibition of growth at 12.5 µM [29]: 41.8%; diameter of the inhibition zone (DIZ) [30]: 13 mm; MIC [31]: 500 µg/mL (≈ 954 µM); inhibition of growth at 50 µM [32]: 73.2%
O=C(NCC(=O)N1c2ccccc2Sc2ccccc21)NN1C(=O)C(Cl)C1c1ccc(Cl)cc1 (centres undefined)	5	62.5 (≈ 122 µM)	15.9	250 (≈ 487 µM)	250 (≈ 487 µM)	62.5 (≈ 122 µM)	19	44.3	0.123	4	250 (≈ 487 µM)	5	62.5 (≈ 122 µM)	250 (≈ 487 µM)	18	7	125 (≈ 243 µM)	62.5 (≈ 122 µM)	7	250 (≈ 487 µM)	diameter of the inhibition zone (DIZ) [33]: 5 mm; Activity [34]: Active; EC50 [35]: 56 µg/mL (≈ 109 µM); diameter of the inhibition zone (DIZ) [24]: 5 mm; diameter of the inhibition zone (DIZ) [25]: 6 mm; MIC [26]: 125 µg/mL (≈ 243 µM); diameter of the inhibition zone (DIZ) [27]: 12 mm; IC50 [28]: 111 µM; inhibition of growth at 12.5 µM [29]: 5.9%; diameter of the inhibition zone (DIZ) [30]: 12 mm; MIC [31]: 125 µg/mL (≈ 243 µM); inhibition of growth at 50 µM [32]: 33.6%
